Measured values taken from US5686482A, “N-(3-pyrrolidinyl) benzamide derivative” (priority 1994, dated 1997).
Where two headings read alike, the source gives them in different places.

Tests used:
schizophrenia patients = conditions: cited from earlier work
[1] = test system: D2, D3 and D4 subtype receptors; conditions: existing antipsychotic agents; cited from earlier work
D3 receptor = biological target: T1, D3 receptor (Rattus norvegicus, UniProt P19020); test: receptor binding test, D3 receptor; conditions: for Ki: cloned receptor membrane, [125I]iodosulpride or [3H]YM-09151-2, 25° C., 1 hour; for Ratio D2/D3: ratio of Ki values
T1 construct: expressed in transfected cells
Description: Using membrane samples of these cells, affinity of compounds for D2 receptor, D3 receptor and D4 receptor was examined by a receptor binding test. The receptor binding test was carried out in the following manner. A D2 receptor, D3 receptor or D4 receptor membrane sample and [^125 I] iodosulpride or [^3 H] YM-09151-2 (trade name, manufactured by Daiichi Pure Chemicals) were incubated at 25° C. for 1 hour in the presence of each compound to be tested. The reaction solution was filtered through a glass filter to measure the amount of radioisotope on the filter.

D4 receptor = biological target: T2, D4 receptor (Homo sapiens, UniProt P21917); test: receptor binding test, D4 receptor; conditions: for Ki: cloned receptor membrane, [125I]iodosulpride or [3H]YM-09151-2, 25° C., 1 hour; for Ratio D2/D4: ratio of Ki values
T2 sequence (P21917 1-419): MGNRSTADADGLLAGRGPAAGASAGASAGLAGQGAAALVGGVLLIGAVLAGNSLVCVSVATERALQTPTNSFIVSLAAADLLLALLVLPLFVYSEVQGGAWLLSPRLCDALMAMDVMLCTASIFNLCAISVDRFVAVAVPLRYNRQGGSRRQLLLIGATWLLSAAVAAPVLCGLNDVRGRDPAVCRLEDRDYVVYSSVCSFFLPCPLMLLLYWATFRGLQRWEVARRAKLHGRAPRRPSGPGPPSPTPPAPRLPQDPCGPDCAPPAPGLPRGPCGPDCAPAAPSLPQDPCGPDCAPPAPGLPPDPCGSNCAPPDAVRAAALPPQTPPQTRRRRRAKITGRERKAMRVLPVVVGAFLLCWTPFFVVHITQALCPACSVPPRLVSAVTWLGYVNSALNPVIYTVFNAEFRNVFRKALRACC

D2 receptor = biological target: T3, D2 receptor (Rattus norvegicus, UniProt P61169); test: receptor binding test, D2 receptor; conditions: cloned receptor membrane, [125I]iodosulpride or [3H]YM-09151-2, 25° C., 1 hour
T3 construct: expressed in transfected cells

[2] = test system: apomorphine-induced climbing behavior; test: antagonism test on apomorphine-induced climbing behavior; type: in vivo; conditions: Mus musculus; SC administration, 15 minutes before apomorphine 2 mg/kg SC; ICR mice; measured during 30 minutes
Description: 2) Antagonism test on apomorphine-induced climbing behavior
Each test compound was administered to ICR mice (body weight, around 35 g; Japan SLC) by subcutaneous injection and, after 15 minutes, apomorphine (2 mg/kg) was subcutaneously injected.

T1 sequence (P19020 whole entry): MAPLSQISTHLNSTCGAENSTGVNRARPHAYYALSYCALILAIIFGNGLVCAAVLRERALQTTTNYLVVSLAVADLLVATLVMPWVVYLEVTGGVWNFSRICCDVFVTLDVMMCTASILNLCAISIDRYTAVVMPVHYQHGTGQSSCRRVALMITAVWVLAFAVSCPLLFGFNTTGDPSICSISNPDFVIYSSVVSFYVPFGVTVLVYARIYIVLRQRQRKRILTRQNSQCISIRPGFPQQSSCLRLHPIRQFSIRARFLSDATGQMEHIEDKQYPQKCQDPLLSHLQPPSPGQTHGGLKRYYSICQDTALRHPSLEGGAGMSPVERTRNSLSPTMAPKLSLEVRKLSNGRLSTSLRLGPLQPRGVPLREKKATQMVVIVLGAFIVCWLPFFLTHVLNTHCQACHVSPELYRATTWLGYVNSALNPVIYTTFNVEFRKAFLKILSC
T3 sequence (P61169 whole entry): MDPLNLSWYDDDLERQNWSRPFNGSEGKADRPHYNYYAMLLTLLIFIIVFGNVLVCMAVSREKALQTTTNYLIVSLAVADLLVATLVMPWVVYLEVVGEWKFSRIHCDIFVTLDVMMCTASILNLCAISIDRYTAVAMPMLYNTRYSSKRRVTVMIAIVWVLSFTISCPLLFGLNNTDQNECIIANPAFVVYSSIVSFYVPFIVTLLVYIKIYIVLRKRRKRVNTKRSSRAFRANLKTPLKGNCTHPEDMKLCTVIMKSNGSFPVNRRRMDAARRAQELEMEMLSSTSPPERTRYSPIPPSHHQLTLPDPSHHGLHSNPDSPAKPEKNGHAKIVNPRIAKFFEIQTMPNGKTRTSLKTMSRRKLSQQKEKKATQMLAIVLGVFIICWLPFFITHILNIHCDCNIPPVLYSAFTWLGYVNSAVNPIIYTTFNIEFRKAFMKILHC

Row | Ki (D3 receptor) [nM] | Ratio D2/D3 (D3 receptor) | Ki (D4 receptor) [nM] | Ratio D2/D4 (D4 receptor) | Ki (D2 receptor) [nM] | SMILES | effect on negative symptoms (schizophrenia patients; clinical) | side effects such as extrapyramidal symptoms (schizophrenia patients; human, in vivo) | relative affinity for D2, D3 and/or D4 receptor [1] | ED50 [2] [mg/kg] | side effects such as extrapyramidal symptoms (schizophrenia patients; clinical)
1 |  |  |  |  |  | CCN1CCCC1CNC(=O)c1cc(S(N)(=O)=O)ccc1OC (stereo not drawn) [sulpiride] | certain degree of effects on negative symptoms | relatively small side effects | its affinity for D3 and/or D4 receptor is similar to its affinity for D2 receptor |  | 
2 | 4 | 88 | 2.6 | 135 | 350 | COc1cc(OC)c(C(=O)N[C@H]2CCN(C3C4CCCC3CCC4)C2)cc1C#N (stereo partly drawn) [Example 19, (S)-N-[1-(bicyclo[3.3.1]non-9-yl)-3-pyrrolidinyl]-5-cyano-2,4-dimethoxybenzamide] |  |  |  |  | 
3 | 1.5 | 48 | 1.1 | 65 | 72 | COc1cc(OC)c([N+](=O)[O-])cc1C(=O)N[C@H]1CCN(C2C3CCCC2CCC3)C1 (stereo partly drawn) [Example 7, (S)-N-[1-(bicyclo[3.3.1]non-9-yl)-3-pyrrolidinyl]-2,4-dimethoxy-5-nitrobenzamide] |  |  |  |  | 
4 | 3.5 | 9.7 | 1.8 | 19 | 34 | CNc1cc(C(=O)N[C@H]2CCN(C3C4CCCC3CCC4)C2)c(OC)cc1OC (stereo partly drawn) [Example 30, (S)-N-[1-(bicyclo[3.3.1]non-9-yl)-3-pyrrolidinyl]-2,4-dimethoxy-5-methylaminobenzamide hemifumarate] |  |  |  | 1.8 | 
5 |  |  |  |  |  | CN1CCN(C2=Nc3cc(Cl)ccc3Nc3ccccc32)CC1 [Clozapine] | effective for patients mainly having negative symptoms |  |  | 6.8 | small extrapyramidal symptoms
6 |  |  |  |  |  | O=C(CCCN1CCC(O)(c2ccc(Cl)cc2)CC1)c1ccc(F)cc1 [haloperidol] |  |  | high affinity for D2 receptor in comparison with D3 receptor and/or D4 receptor |  | highly frequent onset of side effects
